Publication PMC5680089 (Science signaling, 2017)

Legend:
S1P1-GFP (U2OS) = S1P1-GFP (U2OS) (Homo sapiens, UniProt P21453); experiment: receptor internalization, imaging; format: cell-based; details: agonist; […] min, […]°C
ApoM-Fc = ApoM-Fc (Homo sapiens, UniProt O95445); experiment: intrinsic Trp fluorescence quenching; format: binding
ApoM-Fc, sequence (O95445 20-188 limits assumed): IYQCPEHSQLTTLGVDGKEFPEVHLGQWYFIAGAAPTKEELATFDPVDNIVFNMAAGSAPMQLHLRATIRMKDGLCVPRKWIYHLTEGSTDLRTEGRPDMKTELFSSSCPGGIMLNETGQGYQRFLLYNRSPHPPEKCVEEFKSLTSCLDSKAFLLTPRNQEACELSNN

S1P1-GFP (U2OS), sequence (P21453 whole entry): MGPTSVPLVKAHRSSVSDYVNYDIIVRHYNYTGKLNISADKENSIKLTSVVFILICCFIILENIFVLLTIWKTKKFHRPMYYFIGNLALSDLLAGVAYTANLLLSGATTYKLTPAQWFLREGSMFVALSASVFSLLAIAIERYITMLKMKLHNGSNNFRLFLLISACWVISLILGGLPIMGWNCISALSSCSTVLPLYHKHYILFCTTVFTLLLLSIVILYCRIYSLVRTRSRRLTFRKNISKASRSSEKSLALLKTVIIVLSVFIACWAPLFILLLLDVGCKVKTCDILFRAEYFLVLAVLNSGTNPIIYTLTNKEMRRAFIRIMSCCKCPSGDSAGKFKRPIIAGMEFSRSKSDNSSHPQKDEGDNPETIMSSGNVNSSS

EC50 (ApoM-Fc) [nM] | Structure (SMILES) | receptor internalization, imaging (S1P1-GFP (U2OS))
 | CCCCCCCCc1ccc(CCC(N)(CO)COP(=O)(O)O)cc1 (centres unmarked) [FTY720-P] | lower than that induced by FTY720-P, a potent and irreversible inducer of S1P1 endocytosis
~220 | CCCCCCCCCCCCC/C=C/[C@@H](O)[C@@H](N)COP(=O)(O)O [S1P] | 
